Where “and” joins values, the source holds several entries; their conditions need not be identical. Equal entries are not always repeated. Where two headings read alike, the source gives them in different places. Values belong to the compound of their own block, whether it stands above or below them.
How the values were obtained:
[1] = tested on: Neonatal human dermal fibroblasts; assay: Collagen synthesis (secreted procollagen 1 immunoassay); type: cell-based; conditions: 0.2 to 20 mM, 48 hours, serum-free medium
Procedure: Neonatal human dermal fibroblasts were purchased from Clonetics Corp., San Diego, Calif. All materials for cell culture were purchased from Life Technologies, N.Y. Cells were maintained in DMEM with 10% fetal bovine serum and used in passages 5-10, Confluent 96-well plates containing fibroblasts were treated with test materials (0.2 to 20 mM) in serum-free medium for 48 hours. […] This was carried out in a BioDot SF apparatus according to the manufacturer's instructions (BioRad Labs, CA) and the blot was developed using a Vectastain Kit (PK6104, Vector Labs, CA) as per the manufacturer's directions. Color intensity was quantitated using an Ultroscan XL densitometer (Pharmacia LKB). Fold increase was calculated as (density of treated)/untreated.

[2] = tested on: Normal human epidermal keratinocytes (NHEK); assay: Keratinocyte proliferation (DNA content, fluorometric); type: cell-based
Procedure: Normal human epidermal keratinocytes (NHEK) derived from neonatal foreskin were used for all experiments. Media were purchased from Clonetics Corp., San Diego, Calif. Cell stocks frozen in passage 2 were grown in Keratinocyte Growth Medium (KGM) and passaged when 70-80% confluent. Cells were seeded in 96 well plates (Corning) at a density of 7500 cells/well in KGM. After 24 hours, cells were rinsed and dosed with test compounds in 200 μl of Keratinocyte Basal Medium (KBM). Plates were incubated for three days at 37° C., 5% CO2. Cell proliferation was estimated by assaying for DNA content by a fluorometric method described by Rago et al. (Analytical Biochemistry, 191:31-34, 1990). Medium was removed and cells were rinsed with phosphate buffered saline solution. 100 μl of sterile distilled water was added to each well and plates were frozen at -70° C. for one and a half hours. Plates were thawed for one hour at which time 100 μl of a 20 ug/ml solution of Bisbenzimide H33258 fluorochrome (Calbiochem Corp., La Jolla, Calif.) was added to each well. The fluorochrome was prepared just prior to use in 10 mM Tris, 1 mM EDTA, 4M NaCl, pH 7.4. Plates were read in a Millipore Cytofluor fluorescent plate reader to quantify DNA (excitation 360 nm, emission 460 nm). Percent increase over control was calculated from blank-corrected readings as (treated-untreated)/(untreated)*100%.

[3] = tested on: Fibroblast Lactate Dehydrogenase; assay: Lactate dehydrogenase (LDH) inhibition, fibroblast lysate; type: biochemical, human
Procedure: All reagents were purchased from Sigma Chemical Co., St. Louis, Mo, USA. Sigma procedure No. 500 was modified for our purposes. One mL of pyruvate substrate (Sigma […]-1, pH=7.5) was added to a vial containing 1 mg NADH (Sigma 340-101). In a 96-well plate, the following components were added to each test well: 10 μl pyruvate/NADH mixture, and 10 μl cell lysate. For preparation of cell lysates, neonatal human keratinocytes or fibroblasts (Clonetic Corp., San Diego, Calif.) were cultured in tissue culture plates (Corning, USA). Cells were scraped in PBS (pH=7.4) and this solution was used as a source of L-lactate dehydrogenase. If such cell lysate was not available, a commercial preparation of L-lactic dehydrogenase (E.C.1.1.1.27), Sigma L9889, from porcine heart could be used in place of the cell lysate. For positive control, the inhibitor was replaced with 10 μl of PBS. For blank determination, the lysate or enzyme was replaced with […]. After mixing, the plate was incubated for 30 minutes at 37° C. Then 20 μl of color reagent (Sigma 505-2) was added to each well. After 20 minutes at room temperature, 150 μI of 0.4N NaOH was added, and the plate was read for absorbance at 490 nm in a Dynatech MR 7000 Microplate Reader. To calculate % inhibition, the control activity (CA) was first determined by subtracting the absorbance of the positive control from the blank, Then the activity in the presence of the inhibitor (IA) was calculated by subtracting the appropriate absorbance from the blank. %/, Inhibition was then calculated as: ((CA-IA)/CA)* 100%/.

- Maximum fold over Control (collagen synthesis) [1]: 2.0 fold
Compound: CC(=O)O [Acetate]

Compound: O=C(O)CC(O)(CC(=O)O)C(=O)O [Citrate]
- activation at 10 µM ([2]; Homo sapiens, NHEK, 72 h, read-out: % Increase Over Control (keratinocyte proliferation), Table 6, citrate 0.01 mM): 25%
- activation at 100 µM ([2]; Homo sapiens, NHEK, 72 h, read-out: % Increase Over Control (keratinocyte proliferation), Table 6, citrate 0.1 mM): 40%
- activation at 150 µM ([2]; Homo sapiens, NHEK, 72 h, read-out: % Increase Over Control (keratinocyte proliferation), Table 6, citrate 0.15 mM): 18%
- activation at 300 µM ([2]; Homo sapiens, NHEK, 72 h, read-out: % Increase Over Control (keratinocyte proliferation), Table 6, citrate 0.3 mM): 39%
- activation at 600 µM ([2]; Homo sapiens, NHEK, 72 h, read-out: % Increase Over Control (keratinocyte proliferation), Table 6, citrate 0.6 mM): 35%
- activation at 1000 µM ([2]; Homo sapiens, NHEK, 72 h, read-out: % Increase Over Control (keratinocyte proliferation), Table 6, citrate 1.0 mM): 20%
- activation at 1250 µM ([2]; Homo sapiens, NHEK, 72 h, read-out: % Increase Over Control (keratinocyte proliferation), Table 6, citrate 1.25 mM): 18%
- activation at 2500 µM ([2]; Homo sapiens, NHEK, 72 h, read-out: % Increase Over Control (keratinocyte proliferation), Table 6, citrate 2.5 mM): 0%
- activation at 5000 µM ([2]; Homo sapiens, NHEK, 72 h, read-out: % Increase Over Control (keratinocyte proliferation), Table 6, citrate 5.0 mM): 0%
- activation at 10000 µM ([2]; Homo sapiens, NHEK, 72 h, read-out: % Increase Over Control (keratinocyte proliferation), Table 6, citrate 10 mM): 0%
- activation at 2 µM ([2]; Homo sapiens, NHEK, 72 h, read-out: % Increase Over Control (keratinocyte proliferation), Table 7, 0.002 mM): 22%
- activation at 20 µM ([2]; Homo sapiens, NHEK, 72 h, read-out: % Increase Over Control (keratinocyte proliferation), Table 7, 0.02 mM): 31%
- activation at 20000 µM ([2]; Homo sapiens, NHEK, 72 h, read-out: % Increase Over Control (keratinocyte proliferation), Table 7, 20 mM): 0%

- % Inhibition ([3]; 0.625 mM): 0%
- % Inhibition ([3]; 1.25 mM): 0%
- % Inhibition ([3]; 2.5 mM): 0%
- % Inhibition ([3]; 5 mM): 0%
Compound: C[C@@H](O)C(=O)O [D-lactate]

Compound: N[C@@H](CCC(=O)O)C(=O)O [Glutamate]
- Maximum fold over Control (collagen synthesis) [1]: 3.6 fold

Compound: NCC(=O)O [Glycinate]
- % Inhibition ([3]; 0.625 mM): 0%
- % Inhibition ([3]; 1.25 mM): 0%
- % Inhibition ([3]; 2.5 mM): 0%
- % Inhibition ([3]; 5 mM): 0%

- % Inhibition ([3]; 0.625 mM): 0%
- % Inhibition ([3]; 1.25 mM): 0%
- % Inhibition ([3]; 2.5 mM): 0%
- % Inhibition ([3]; 5 mM): 0%
Compound: O=C(O)CO [Glycolate]

Compound: O=C(O)CC(C(=O)O)C(O)C(=O)O (stereo not shown) [Isocitrate]
- activation at 0.2 µM ([2]; Homo sapiens, NHEK, 72 h, read-out: % Increase Over Control (keratinocyte proliferation), Table 8, isocitrate 0.0002 mM): 0%
- activation at 2 µM ([2]; Homo sapiens, NHEK, 72 h, read-out: % Increase Over Control (keratinocyte proliferation), Table 8, isocitrate 0.002 mM): 39%
- activation at 156 µM ([2]; Homo sapiens, NHEK, 72 h, read-out: % Increase Over Control (keratinocyte proliferation), Table 8, isocitrate 0.156 mM): 32%
- activation at 313 µM ([2]; Homo sapiens, NHEK, 72 h, read-out: % Increase Over Control (keratinocyte proliferation), Table 8, isocitrate 0.313 mM): 40%
- activation at 625 µM ([2]; Homo sapiens, NHEK, 72 h, read-out: % Increase Over Control (keratinocyte proliferation), Table 8, isocitrate 0.625 mM): 32%
- activation at 1250 µM ([2]; Homo sapiens, NHEK, 72 h, read-out: % Increase Over Control (keratinocyte proliferation), Table 8, isocitrate 1.25 mM): 40%
- activation at 2000 µM ([2]; Homo sapiens, NHEK, 72 h, read-out: % Increase Over Control (keratinocyte proliferation), Table 8, isocitrate 2.0 mM): 40%
- activation at 2500 µM ([2]; Homo sapiens, NHEK, 72 h, read-out: % Increase Over Control (keratinocyte proliferation), Table 8, isocitrate 2.5 mM): 32%
- activation at 5000 µM ([2]; Homo sapiens, NHEK, 72 h, read-out: % Increase Over Control (keratinocyte proliferation), Table 8, isocitrate 5.0 mM): 18%
- activation at 10000 µM ([2]; Homo sapiens, NHEK, 72 h, read-out: % Increase Over Control (keratinocyte proliferation), Table 8, isocitrate 10 mM): 0%
- % Increase Over Control (keratinocyte proliferation) ([2]; Table 8, isocitrate 0.002 mM): 20%
- % Increase Over Control (keratinocyte proliferation) ([2]; Table 8, isocitrate 2.0 mM): 30%

Compound: O=C(O)CCC(=O)C(=O)O [Ketoglutarate]
- Maximum fold over Control (collagen synthesis) [1]: 2.2 fold

Compound: O=C(O)C[C@H](O)C(=O)O [L-Malate]
- % Inhibition ([3]; 0.625 mM): 0%
- % Inhibition ([3]; 1.25 mM): 0%
- % Inhibition ([3]; 2.5 mM): 0%
- % Inhibition ([3]; 5 mM): 0%
- activation at 2 µM ([2]; Homo sapiens, NHEK, 72 h, read-out: % Increase Over Control (keratinocyte proliferation), Table 5, L-malate 0.002 mM): 34%
- activation at 20 µM ([2]; Homo sapiens, NHEK, 72 h, read-out: % Increase Over Control (keratinocyte proliferation), Table 5, L-malate 0.02 mM): 27%
- activation at 200 µM ([2]; Homo sapiens, NHEK, 72 h, read-out: % Increase Over Control (keratinocyte proliferation), Table 5, L-malate 0.2 mM): 36%
- % Increase Over Control (keratinocyte proliferation) ([2]; Table 5, L-malate 0.2 mM): 19% and 29%
- % Increase Over Control ([2]; Table 12, oxamate 0, malate 0.156 mM): 33%
- % Increase Over Control ([2]; Table 12, oxamate 0, malate 0.313 mM): 29%
- % Increase Over Control ([2]; Table 12, oxamate 0, malate 0.625 mM): 36%
- % Increase Over Control ([2]; Table 12, oxamate 0, malate 1.25 mM): 25%
- % Increase Over Control ([2]; Table 12, oxamate 0, malate 2.5 mM): 39%
- % Increase Over Control ([2]; Table 12, oxamate 0, malate 5.0 mM): 20%

- % Inhibition ([3]; 0.625 mM): 0%
- % Inhibition ([3]; 1.25 mM): 0%
- % Inhibition ([3]; 2.5 mM): 0%
- % Inhibition ([3]; 5 mM): 0%
Compound: C[C@H](O)C(=O)O [L-lactate]

- % Inhibition ([3]; 0.625 mM): 0%
- % Inhibition ([3]; 1.25 mM): 0%
- % Inhibition ([3]; 2.5 mM): 0%
- % Inhibition ([3]; 5 mM): 0%
Compound: O=C(O)CC(=O)O [Malonate]

- % Inhibition ([3]; 0.625 mM): 0%
- % Inhibition ([3]; 1.25 mM): 0%
- % Inhibition ([3]; 2.5 mM): 0%
- % Inhibition ([3]; 5 mM): 0%
Compound: c1cn[nH]c1 [Pyrazole]

Compound: CC(=O)C(=O)O [Pyruvate]
- % Increase Over Control ([2]; Table 11, oxamate 0, pyruvate 0.156 mM): 2%
- % Increase Over Control ([2]; Table 11, oxamate 0, pyruvate 0.313 mM): 0%
- % Increase Over Control ([2]; Table 11, oxamate 0, pyruvate 0.625 mM): 3%
- % Increase Over Control ([2]; Table 11, oxamate 0, pyruvate 1.25 mM): 0%
- % Increase Over Control ([2]; Table 11, oxamate 0, pyruvate 2.5 mM): 7%
- % Increase Over Control ([2]; Table 11, oxamate 0, pyruvate 5.0 mM): 0%

- Maximum fold over Control (collagen synthesis) [1]: 2.8 fold
Compound: O=C(O)CCC(=O)O [Succinate]

Compound: CC(S)C(=O)O (stereo not shown) [Thio-Lactate, Thiolactate]
- activation at 313 µM ([2]; Homo sapiens, NHEK, 72 h, Table 4, 0.313 mM, read-out: % increase over control (keratinocyte proliferation)): 9%
- activation at 625 µM ([2]; Homo sapiens, NHEK, 72 h, Table 4, 0.625 mM, read-out: % increase over control (keratinocyte proliferation)): 29%
- activation at 1250 µM ([2]; Homo sapiens, NHEK, 72 h, Table 4, 1.25 mM, read-out: % increase over control (keratinocyte proliferation)): 27%
- activation at 2500 µM ([2]; Homo sapiens, NHEK, 72 h, Table 4, 2.5 mM, read-out: % increase over control (keratinocyte proliferation)): 5%
- activation at 5000 µM ([2]; Homo sapiens, NHEK, 72 h, Table 4, 5 mM, read-out: % increase over control (keratinocyte proliferation)): 0%

- % Inhibition ([3]; 0.625 mM): 0%
- % Inhibition ([3]; 1.25 mM): 0%
- % Inhibition ([3]; 2.5 mM): 0%
- % Inhibition ([3]; 5 mM): 0%
Compound: Methyl pyrazole

Reference: patent US5853742A, “Cosmetic compositions containing lactate dehydrogenase inhibitors” (priority 1997, dated 1998)
